For series [1], the target named is T1, von Hippel-Lindau disease tumor suppressor/Focal adhesion kinase 1 (Homo sapiens, UniProt Q05397+P40337). Briefly: Protac activity at VHL/PTK2 in human Huh-7 cells assessed as induction of PTK2 degradation incubated for 18 hrs by protein capillary electrophoresis method relative to control. The class given is cell-based.
The target in series [2] is T1, von Hippel-Lindau disease tumor suppressor/Focal adhesion kinase 1. Put plainly: Protac activity at VHL/PTK2 in human HuCCT-1 cells assessed as induction of PTK2 degradation incubated for 18 hrs by protein capillary electrophoresis method relative to control. It counts as cell-based.
Series [3] shares this target. Briefly: Protac activity at VHL/PTK2 in human HLF1 cells assessed as induction of PTK2 degradation incubated for 18 hrs by protein capillary electrophoresis method relative to control. The class given is cell-based.
The target is the same in series [4]. Put plainly: Protac activity at VHL/PTK2 in human SK-HEP1 cells assessed as induction of PTK2 degradation incubated for 18 hrs by protein capillary electrophoresis method relative to control. The class given is cell-based.
The target is the same in series [5]. Put plainly: Protac activity at VHL/PTK2 in human SNU-423 cells assessed as induction of PTK2 degradation incubated for 18 hrs by protein capillary electrophoresis method. It counts as cell-based.
Target sequence in this assay (Q05397 whole entry): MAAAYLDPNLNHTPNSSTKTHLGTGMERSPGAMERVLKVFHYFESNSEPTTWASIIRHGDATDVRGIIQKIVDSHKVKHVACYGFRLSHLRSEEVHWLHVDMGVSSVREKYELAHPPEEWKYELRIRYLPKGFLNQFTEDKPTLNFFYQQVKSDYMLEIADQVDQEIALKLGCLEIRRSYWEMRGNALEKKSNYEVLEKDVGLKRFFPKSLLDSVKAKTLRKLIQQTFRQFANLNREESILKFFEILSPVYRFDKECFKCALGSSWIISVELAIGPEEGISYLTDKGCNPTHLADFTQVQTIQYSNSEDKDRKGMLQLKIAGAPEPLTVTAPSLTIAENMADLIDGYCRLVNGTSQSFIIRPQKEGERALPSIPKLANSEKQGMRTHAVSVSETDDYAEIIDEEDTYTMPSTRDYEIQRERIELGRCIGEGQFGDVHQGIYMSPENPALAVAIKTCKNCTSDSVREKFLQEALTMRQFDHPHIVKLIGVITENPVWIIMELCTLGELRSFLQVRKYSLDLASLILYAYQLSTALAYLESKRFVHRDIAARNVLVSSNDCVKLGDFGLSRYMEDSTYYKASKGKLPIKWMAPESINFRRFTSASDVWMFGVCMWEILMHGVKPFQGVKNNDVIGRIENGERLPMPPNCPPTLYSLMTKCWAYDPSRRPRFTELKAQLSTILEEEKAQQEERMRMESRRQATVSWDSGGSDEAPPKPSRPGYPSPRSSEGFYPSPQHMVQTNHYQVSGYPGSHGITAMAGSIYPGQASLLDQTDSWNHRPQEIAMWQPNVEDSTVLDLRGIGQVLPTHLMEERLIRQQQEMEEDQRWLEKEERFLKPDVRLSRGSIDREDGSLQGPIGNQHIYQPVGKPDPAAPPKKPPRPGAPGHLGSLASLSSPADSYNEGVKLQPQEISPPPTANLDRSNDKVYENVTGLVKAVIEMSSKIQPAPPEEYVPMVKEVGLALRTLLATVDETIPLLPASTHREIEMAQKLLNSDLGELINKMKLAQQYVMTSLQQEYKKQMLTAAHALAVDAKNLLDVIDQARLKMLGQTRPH
Target sequence in this assay (P40337 whole entry): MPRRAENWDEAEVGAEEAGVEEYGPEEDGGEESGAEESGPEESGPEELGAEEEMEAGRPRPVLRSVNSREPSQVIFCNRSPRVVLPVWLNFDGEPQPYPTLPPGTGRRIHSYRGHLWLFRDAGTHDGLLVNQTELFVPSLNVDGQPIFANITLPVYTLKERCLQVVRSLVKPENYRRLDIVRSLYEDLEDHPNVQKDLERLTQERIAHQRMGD
The target is the same in series [6]. Briefly: Protac activity at VHL/PTK2 in human Huh-7 cells assessed as induction of PTK2 degradation incubated for 18 hrs by protein capillary electrophoresis method. It counts as cell-based.
Target sequence in this assay (Q05397 whole entry): as the sequence (Q05397 whole entry) above
Target sequence in this assay (P40337 whole entry): as the sequence (P40337 whole entry) above
For series [7] the target is unchanged. Put plainly: Protac activity at VHL/PTK2 in human HLE cells assessed as induction of PTK2 degradation incubated for 18 hrs by protein capillary electrophoresis method. The class given is cell-based.
Target sequence in this assay (Q05397 whole entry): as the sequence (Q05397 whole entry) above
Target sequence in this assay (P40337 whole entry): as the sequence (P40337 whole entry) above
For series [8] the target is unchanged. Briefly: Protac activity at VHL/PTK2 in human SNU-398 cells assessed as induction of PTK2 degradation incubated for 18 hrs by protein capillary electrophoresis method. It counts as cell-based.
Target sequence in this assay (Q05397 whole entry): as the sequence (Q05397 whole entry) above
Target sequence in this assay (P40337 whole entry): as the sequence (P40337 whole entry) above
The target is the same in series [9]. Briefly: Protac activity at VHL/PTK2 in human HLF1 cells assessed as induction of PTK2 degradation incubated for 18 hrs by protein capillary electrophoresis method. It counts as cell-based.
Target sequence in this assay (Q05397 whole entry): as the sequence (Q05397 whole entry) above
Target sequence in this assay (P40337 whole entry): as the sequence (P40337 whole entry) above
For series [10] the target is unchanged. Put plainly: Protac activity at VHL/PTK2 in human HuH-1 cells assessed as induction of PTK2 degradation incubated for 18 hrs by protein capillary electrophoresis method. It counts as cell-based.
Target sequence in this assay (Q05397 whole entry): as the sequence (Q05397 whole entry) above
Target sequence in this assay (P40337 whole entry): as the sequence (P40337 whole entry) above
For series [11] the target is unchanged. Briefly: Protac activity at VHL/PTK2 in human Hep3B2.1-7 cells assessed as induction of PTK2 degradation incubated for 18 hrs in presence of Cyclosporine by protein capillary electrophoresis method relative to control. It counts as cell-based. Particulars: Hep3B.
Series [12] shares this target. Put plainly: Protac activity at VHL/PTK2 in human Hep3B2.1-7 cells assessed as induction of PTK2 degradation incubated for 18 hrs in presence of Cyclosporine by protein capillary electrophoresis method. It counts as cell-based. The conditions noted are these: hep3b.
For series [13] the target is unchanged. Briefly: Protac activity at VHL/PTK2 in human Hep3B2.1-7 cells assessed as induction of PTK2 degradation incubated for 18 hrs by protein capillary electrophoresis method. It counts as cell-based. The conditions noted are these: hep3b.
The target of series [14] is Leucine-rich repeat serine/threonine-protein kinase 2 (Homo sapiens) (UniProt Q5S007). Briefly: Inhibition of LRRK2 (unknown origin) at 1 uM relative to control.
In series [15] the target is T1, von Hippel-Lindau disease tumor suppressor/Focal adhesion kinase 1. Briefly: Protac activity at VHL/PTK2 in human A549 cells assessed as induction of PTK2 degradation incubated for 18 hrs by protein capillary electrophoresis method relative to control. The class given is cell-based.
Series [16] has the same target. Briefly: Protac activity at VHL/PTK2 in human A549 cells assessed as induction of PTK2 degradation incubated for 18 hrs by protein capillary electrophoresis method. It counts as cell-based.
The target is the same in series [17]. Put plainly: Protac activity at VHL/PTK2 in human Hep3B2.1-7 cells assessed as time required for maximal induction of PTK2 degradation at 3 uM incubated for up to 80 hrs by protein capillary electrophoresis method. The conditions noted are these: time hrs <=80.
Series [18] concerns the target T2, Protein cereblon/Focal adhesion kinase 1 (Homo sapiens, UniProt Q05397+Q96SW2). Put plainly: Protac activity at CRBN/PTK2 in human SNU-423 cells assessed as induction of PTK2 degradation incubated for 18 hrs by protein capillary electrophoresis method relative to control. It counts as cell-based.
Target sequence in this assay (Q05397 2-1052 limits assumed): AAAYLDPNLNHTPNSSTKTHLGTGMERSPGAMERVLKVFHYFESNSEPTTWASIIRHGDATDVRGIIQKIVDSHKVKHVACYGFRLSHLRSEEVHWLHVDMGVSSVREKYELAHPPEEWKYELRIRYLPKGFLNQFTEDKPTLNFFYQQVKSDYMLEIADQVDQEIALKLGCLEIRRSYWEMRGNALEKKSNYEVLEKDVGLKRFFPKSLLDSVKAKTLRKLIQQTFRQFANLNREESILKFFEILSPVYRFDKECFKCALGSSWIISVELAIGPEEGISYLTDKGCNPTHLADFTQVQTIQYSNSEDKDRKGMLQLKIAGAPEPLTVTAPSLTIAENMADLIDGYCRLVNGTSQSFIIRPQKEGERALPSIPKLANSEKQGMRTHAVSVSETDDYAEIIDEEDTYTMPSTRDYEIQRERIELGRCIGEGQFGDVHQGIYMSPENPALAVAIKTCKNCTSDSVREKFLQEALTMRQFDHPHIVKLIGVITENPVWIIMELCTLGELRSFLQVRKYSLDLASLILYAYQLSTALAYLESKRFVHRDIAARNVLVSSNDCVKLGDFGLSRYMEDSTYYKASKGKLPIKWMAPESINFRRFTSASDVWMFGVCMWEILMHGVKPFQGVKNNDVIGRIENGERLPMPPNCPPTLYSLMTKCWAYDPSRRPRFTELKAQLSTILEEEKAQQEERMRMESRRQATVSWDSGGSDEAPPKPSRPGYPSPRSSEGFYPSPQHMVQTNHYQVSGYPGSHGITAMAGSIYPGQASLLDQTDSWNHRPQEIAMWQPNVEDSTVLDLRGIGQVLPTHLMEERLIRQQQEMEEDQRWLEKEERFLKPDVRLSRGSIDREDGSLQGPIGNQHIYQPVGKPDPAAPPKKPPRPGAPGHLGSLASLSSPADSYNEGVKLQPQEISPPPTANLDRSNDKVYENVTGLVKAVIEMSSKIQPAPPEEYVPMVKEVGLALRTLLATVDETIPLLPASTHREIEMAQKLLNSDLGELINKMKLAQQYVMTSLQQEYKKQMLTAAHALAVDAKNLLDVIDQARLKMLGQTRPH
Target sequence in this assay (Q96SW2 whole entry partner): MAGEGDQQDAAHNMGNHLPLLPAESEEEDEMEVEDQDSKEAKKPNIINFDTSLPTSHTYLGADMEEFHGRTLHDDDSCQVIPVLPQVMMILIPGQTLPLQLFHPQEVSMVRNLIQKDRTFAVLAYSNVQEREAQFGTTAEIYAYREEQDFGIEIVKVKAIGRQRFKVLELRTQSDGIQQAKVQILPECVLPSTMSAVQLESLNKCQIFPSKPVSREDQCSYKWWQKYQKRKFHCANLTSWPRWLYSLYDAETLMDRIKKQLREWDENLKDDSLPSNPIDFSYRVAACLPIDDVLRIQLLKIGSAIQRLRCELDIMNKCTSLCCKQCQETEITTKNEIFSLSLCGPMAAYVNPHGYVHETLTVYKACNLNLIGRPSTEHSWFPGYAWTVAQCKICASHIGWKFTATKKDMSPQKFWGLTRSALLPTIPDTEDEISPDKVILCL
The target in series [19] is T2, Protein cereblon/Focal adhesion kinase 1. Briefly: Protac activity at CRBN/PTK2 in human Huh-7 cells assessed as induction of PTK2 degradation incubated for 18 hrs by protein capillary electrophoresis method relative to control. The class given is cell-based.
Target sequence in this assay (Q05397 2-1052 limits assumed): as the sequence (Q05397 2-1052 limits assumed) above
Target sequence in this assay (Q96SW2 whole entry partner): as the sequence (Q96SW2 whole entry partner) above
Series [20] shares this target. Briefly: Protac activity at CRBN/PTK2 in human HLE cells assessed as induction of PTK2 degradation incubated for 18 hrs by protein capillary electrophoresis method relative to control. The class given is cell-based.
Target sequence in this assay (Q05397 2-1052 limits assumed): as the sequence (Q05397 2-1052 limits assumed) above
Target sequence in this assay (Q96SW2 whole entry partner): as the sequence (Q96SW2 whole entry partner) above
Series [21] has the same target. Put plainly: Protac activity at CRBN/PTK2 in human HuCCT-1 cells assessed as induction of PTK2 degradation incubated for 18 hrs by protein capillary electrophoresis method relative to control. It counts as cell-based.
Target sequence in this assay (Q05397 2-1052 limits assumed): as the sequence (Q05397 2-1052 limits assumed) above
Target sequence in this assay (Q96SW2 whole entry partner): as the sequence (Q96SW2 whole entry partner) above
The target is the same in series [22]. Put plainly: Protac activity at CRBN/PTK2 in human HLF1 cells assessed as induction of PTK2 degradation incubated for 18 hrs by protein capillary electrophoresis method relative to control. The class given is cell-based.
Target sequence in this assay (Q05397 2-1052 limits assumed): as the sequence (Q05397 2-1052 limits assumed) above
Target sequence in this assay (Q96SW2 whole entry partner): as the sequence (Q96SW2 whole entry partner) above
The target is the same in series [23]. Briefly: Protac activity at CRBN/PTK2 in human SK-HEP1 cells assessed as induction of PTK2 degradation incubated for 18 hrs by protein capillary electrophoresis method relative to control. The class given is cell-based.
Target sequence in this assay (Q05397 2-1052 limits assumed): as the sequence (Q05397 2-1052 limits assumed) above
Target sequence in this assay (Q96SW2 whole entry partner): as the sequence (Q96SW2 whole entry partner) above
The target is the same in series [24]. Put plainly: Protac activity at CRBN/PTK2 in human SNU-387 cells assessed as induction of PTK2 degradation incubated for 18 hrs by protein capillary electrophoresis method relative to control. It counts as cell-based.
Series [25] shares this target. Put plainly: Protac activity at CRBN/PTK2 in human HLE cells assessed as induction of PTK2 degradation incubated for 18 hrs by protein capillary electrophoresis method. It counts as cell-based.
Series [26] shares this target. Briefly: Protac activity at CRBN/PTK2 in human SNU-398 cells assessed as induction of PTK2 degradation incubated for 18 hrs by protein capillary electrophoresis method. It counts as cell-based.
For series [27] the target is unchanged. Briefly: Protac activity at CRBN/PTK2 in human HLF1 cells assessed as induction of PTK2 degradation incubated for 18 hrs by protein capillary electrophoresis method. It counts as cell-based.
Series [28] has the same target. Put plainly: Protac activity at CRBN/PTK2 in human HuH-1 cells assessed as induction of PTK2 degradation incubated for 18 hrs by protein capillary electrophoresis method. The class given is cell-based.
For series [29] the target is unchanged. Put plainly: Protac activity at CRBN/PTK2 in human SNU-387 cells assessed as induction of PTK2 degradation incubated for 18 hrs by protein capillary electrophoresis method. It counts as cell-based.
The target is the same in series [30]. Briefly: Protac activity at CRBN/PTK2 in human A549 cells assessed as time required for maximal induction of PTK2 degradation at 3 uM by protein capillary electrophoresis method. It counts as cell-based.
Series [31] is described as follows: Stability in DMSO as solid form. The class given is physicochemical.
The target in series [32] is T2, Protein cereblon/Focal adhesion kinase 1. Put plainly: Protac activity at CRBN/PTK2 in human Hep3B2.1-7 cells assessed as induction of PTK2 degradation incubated for 18 hrs in presence of Cyclosporine A by protein capillary electrophoresis method. Particulars: hep3b. The class given is cell-based.
For series [33] the target is unchanged. Put plainly: Protac activity at CRBN/PTK2 in human Hep3B2.1-7 cells assessed as induction of PTK2 degradation incubated for 18 hrs by protein capillary electrophoresis method relative to control. The class given is cell-based. The conditions noted are these: Hep3B.
The target is the same in series [34]. Briefly: Protac activity at CRBN/PTK2 in human Hep3B2.1-7 cells assessed as induction of PTK2 degradation incubated for 18 hrs by protein capillary electrophoresis method. It counts as cell-based. Particulars: hep3b.
The target is the same in series [35]. Briefly: Protac activity at CRBN/PTK2 in human Hep3B2.1-7 cells assessed as time required for maximal induction of PTK2 degradation at 3 uM incubated for up to 80 hrs by protein capillary electrophoresis method. Particulars: time hrs <=80.

The structures appear in SMILES notation. A value given as a limit tells only on which side of the number the result lay.

As for `COc1cc(C(=O)NCCOCCOCCOCC(=O)N[C@H](C(=O)N2C[C@H](O)C[C@H]2C(=O)NCc2ccc(-c3scnc3C)cc2)C(C)(C)C)ccc1Nc1ncc(C(F)(F)F)c(Oc2cccc3c2C(=O)CC3)n1`, the Emax (in general, the size of the effect at its maximum, as opposed to the concentration needed) in [1] came out at 79%; in series [2] it was 86%; in [3] it was 66%; in [4], 87%; in series [11], 88%; in series [15], 80%. Further, the pDC50 in [5] was determined as 7.1; in [6], 7; in series [7] it was 7.6; in series [8] it was 8; in series [9], 7.4; in series [10], 7.1. The pDC50 in [12] was determined as 7.4; in series [13], 6.2; in series [16] it was 6.7. Further, the inhibition (in general, how much of the control response was suppressed) in series [14] was greater than 90%. Moreover, in series [17], the TIME is 20 h.

Consider `COc1cc(C(=O)NCCOCCOCCOCCC(=O)Nc2cccc3c2C(=O)N(C2CCC(=O)NC2=O)C3=O)ccc1Nc1ncc(C(F)(F)F)c(Oc2cccc3c2C(=O)CC3)n1` (stereo not given), for which the Emax in series [18] came to 93%; in series [19], 93%; in [20], 79%; in series [21], 90%; in series [22], 30%; in series [23], 89%. The maximal response (Emax) is 90% in series [24] and 96% in series [33]. Besides, the pDC50 in series [25] stood at 6.8; in series [26], 8.5; in series [27], 6.4; in series [28], 6.6; in series [29], 7.6; in series [32], 9. Further, the pDC50 in [34] was found to be 7.9. For the same compound, the TIME in [30] is 18 h; in [35], 5 h. This compound also showed a Stabilty in series [31] greater than 3 months.

The values above are taken from ChEMBL document CHEMBL4673225, “Highly Selective PTK2 Proteolysis Targeting Chimeras to Probe Focal Adhesion Kinase Scaffolding Functions” (J Med Chem, 2019).
